{
  "source": "paper PMC3561458",
  "about": "(Investigational new drugs, 2011)",
  "key": {"animals": {"system": "animals", "details": "high single or repeated doses; cited from earlier work"}, "[1]": {"system": "CDK related biomarkers Cyclin A2, Cyclin B1 and Ki67", "assay": "Pharmacodynamics: qRT-PCR on skin biopsies", "type": "in vivo, human", "details": "pre- vs post-treatment"}, "CDK5": {"system": "CDK5", "details": "cited from earlier work"}, "CDK1": {"system": "CDK1", "details": "cited from earlier work"}, "[2]": {"system": "patients with advanced/metastatic solid tumors", "assay": "Phase I safety: adverse events", "type": "in vivo, human"}},
  "data": [
    {"smiles": "CNC(=O)c1nn(C)c2c1C(C)(C)Cc1cnc(Nc3ccc(N4CCN(C)CC4)cc3)nc1-2", "note": "[PHA-848125AC, N,1,4,4-tetramethyl-8-{[4-(4-methylpiperazin-1-yl)phenyl]amino}-4,5-dihydro-1H-pyrazolo [4,3-h]quinazoline-3-carboxamide]", "values": [
      {"measurement": "neurological effects in animals", "setting": "animals", "result": "tremors and increased reactivity to external stimuli"},
      {"measurement": "modulation of CDK related biomarkers Cyclin A2, Cyclin B1 and Ki67", "setting": "[1]", "result": "down modulation"},
      {"measurement": "inhibitory activity towards CDK5", "setting": "CDK5", "result": "inhibitory activity"},
      {"measurement": "inhibitory activity towards CDK1", "setting": "CDK1", "result": "inhibitory activity"},
      {"measurement": "ERG findings during treatment", "setting": "[2]; S1", "result": "No abnormal ERG findings"},
      {"measurement": "doses at which DLTs≥Grade 3 were noted", "setting": "[2]; S1", "result": "≥ 200", "unit": "mg/day"},
      {"measurement": "Any drug-related adverse event, CTC Grade 1–4: patients", "setting": "[2]; S1 50 mg/day N=3, all cycles", "result": 3},
      {"measurement": "Nausea, drug-related, CTC Grade 1–4: patients", "setting": "[2]; S1 50 mg/day N=3, all cycles", "result": 1},
      {"measurement": "Any drug-related adverse event, CTC Grade 1–4: patients", "setting": "[2]; S1 100 mg/day N=6, all cycles", "result": 6},
      {"measurement": "Any drug-related adverse event, CTC Grade 3–4: patients", "setting": "[2]; S1 100 mg/day N=6, all cycles", "result": 1},
      {"measurement": "Decreased Hb, drug-related, CTC Grade 1–4: patients", "setting": "[2]; S1 100 mg/day N=6, all cycles", "result": 1},
      {"measurement": "Decreased Hb, drug-related, CTC Grade 3–4: patients", "setting": "[2]; S1 100 mg/day N=6, all cycles", "result": 1},
      {"measurement": "Diarrhea, drug-related, CTC Grade 1–4: patients", "setting": "[2]; S1 100 mg/day N=6, all cycles", "result": 1},
      {"measurement": "Fatigue, drug-related, CTC Grade 1–4: patients", "setting": "[2]; S1 100 mg/day N=6, all cycles", "result": 2},
      {"measurement": "Fatigue, drug-related, CTC Grade 3–4: patients", "setting": "[2]; S1 100 mg/day N=6, all cycles", "result": 1},
      {"measurement": "Nausea, drug-related, CTC Grade 1–4: patients", "setting": "[2]; S1 100 mg/day N=6, all cycles", "result": 3},
      {"measurement": "Tremor, drug-related, CTC Grade 1–4: patients", "setting": "[2]; S1 100 mg/day N=6, all cycles", "result": 2},
      {"measurement": "Vomiting, drug-related, CTC Grade 1–4: patients", "setting": "[2]; S1 100 mg/day N=6, all cycles", "result": 3},
      {"measurement": "DLT events", "setting": "[2]; S1 200 mg/day", "result": "Grade 3 ataxia and Grade 2–3 tremors"},
      {"measurement": "Any drug-related adverse event, CTC Grade 1–4: patients", "setting": "[2]; S1 200 mg/day N=6, all cycles", "result": 6},
      {"measurement": "Any drug-related adverse event, CTC Grade 3–4: patients", "setting": "[2]; S1 200 mg/day N=6, all cycles", "result": 5},
      {"measurement": "Ataxia, drug-related, CTC Grade 1–4: patients", "setting": "[2]; S1 200 mg/day N=6, all cycles", "result": 3},
      {"measurement": "Ataxia, drug-related, CTC Grade 3–4: patients", "setting": "[2]; S1 200 mg/day N=6, all cycles", "result": 3},
      {"measurement": "Diarrhea, drug-related, CTC Grade 1–4: patients", "setting": "[2]; S1 200 mg/day N=6, all cycles", "result": 5},
      {"measurement": "Diarrhea, drug-related, CTC Grade 3–4: patients", "setting": "[2]; S1 200 mg/day N=6, all cycles", "result": 1},
      {"measurement": "Dizziness, drug-related, CTC Grade 1–4: patients", "setting": "[2]; S1 200 mg/day N=6, all cycles", "result": 1},
      {"measurement": "Fatigue, drug-related, CTC Grade 1–4: patients", "setting": "[2]; S1 200 mg/day N=6, all cycles", "result": 2},
      {"measurement": "Increased ALT, drug-related, CTC Grade 1–4: patients", "setting": "[2]; S1 200 mg/day N=6, all cycles", "result": 1},
      {"measurement": "Increased ALT, drug-related, CTC Grade 3–4: patients", "setting": "[2]; S1 200 mg/day N=6, all cycles", "result": 1},
      {"measurement": "Nausea, drug-related, CTC Grade 1–4: patients", "setting": "[2]; S1 200 mg/day N=6, all cycles", "result": 4},
      {"measurement": "Neutropenia, drug-related, CTC Grade 1–4: patients", "setting": "[2]; S1 200 mg/day N=6, all cycles", "result": 1},
      {"measurement": "Neutropenia, drug-related, CTC Grade 3–4: patients", "setting": "[2]; S1 200 mg/day N=6, all cycles", "result": 1},
      {"measurement": "Syncope, drug-related, CTC Grade 1–4: patients", "setting": "[2]; S1 200 mg/day N=6, all cycles", "result": 1},
      {"measurement": "Syncope, drug-related, CTC Grade 3–4: patients", "setting": "[2]; S1 200 mg/day N=6, all cycles", "result": 1},
      {"measurement": "Tremor, drug-related, CTC Grade 1–4: patients", "setting": "[2]; S1 200 mg/day N=6, all cycles", "result": 4},
      {"measurement": "Tremor, drug-related, CTC Grade 3–4: patients", "setting": "[2]; S1 200 mg/day N=6, all cycles", "result": 2},
      {"measurement": "Vomiting, drug-related, CTC Grade 1–4: patients", "setting": "[2]; S1 200 mg/day N=6, all cycles", "result": 4},
      {"measurement": "Any drug-related adverse event, CTC Grade 1–4: patients", "setting": "[2]; S1 300 mg/day N=1, all cycles", "result": 1},
      {"measurement": "Any drug-related adverse event, CTC Grade 3–4: patients", "setting": "[2]; S1 300 mg/day N=1, all cycles", "result": 1},
      {"measurement": "Ataxia, drug-related, CTC Grade 1–4: patients", "setting": "[2]; S1 300 mg/day N=1, all cycles", "result": 1},
      {"measurement": "Ataxia, drug-related, CTC Grade 3–4: patients", "setting": "[2]; S1 300 mg/day N=1, all cycles", "result": 1},
      {"measurement": "Dehydration, drug-related, CTC Grade 1–4: patients", "setting": "[2]; S1 300 mg/day N=1, all cycles", "result": 1},
      {"measurement": "Diarrhea, drug-related, CTC Grade 1–4: patients", "setting": "[2]; S1 300 mg/day N=1, all cycles", "result": 1},
      {"measurement": "Dizziness, drug-related, CTC Grade 1–4: patients", "setting": "[2]; S1 300 mg/day N=1, all cycles", "result": 1},
      {"measurement": "Fatigue, drug-related, CTC Grade 1–4: patients", "setting": "[2]; S1 300 mg/day N=1, all cycles", "result": 1},
      {"measurement": "Nausea, drug-related, CTC Grade 1–4: patients", "setting": "[2]; S1 300 mg/day N=1, all cycles", "result": 1},
      {"measurement": "Tremor, drug-related, CTC Grade 1–4: patients", "setting": "[2]; S1 300 mg/day N=1, all cycles", "result": 1},
      {"measurement": "Vomiting, drug-related, CTC Grade 1–4: patients", "setting": "[2]; S1 300 mg/day N=1, all cycles", "result": 1},
      {"measurement": "dose-limiting toxicities (DLTs)", "setting": "[2]; S1 (7 days on/7 days off q2wks), all doses", "result": "ataxia (Grade 2–4) and tremors (Grade 2–3)"},
      {"measurement": "patients with drug-related eye disorders", "setting": "[2]; S1, single patient, Grade 1 increased lacrimation", "result": 4.5, "unit": "%"},
      {"measurement": "patients discontinued due to adverse events", "setting": "[2]; S1 N=22", "result": 13.6, "unit": "%"},
      {"measurement": "ataxia", "setting": "[2]; S2", "result": "not observed"},
      {"measurement": "fundoscopy and ERG abnormalities during treatment", "setting": "[2]; S2", "result": "neither clinically relevant abnormality at fundoscopy nor ERG abnormalities"},
      {"measurement": "Anemia, drug-related, CTC Grade 1–4: patients", "setting": "[2]; S2 150 mg/day N=5, all cycles", "result": 2},
      {"measurement": "Any drug-related adverse event, CTC Grade 1–4: patients", "setting": "[2]; S2 150 mg/day N=5, all cycles", "result": 5},
      {"measurement": "Any drug-related adverse event, CTC Grade 3–4: patients", "setting": "[2]; S2 150 mg/day N=5, all cycles", "result": 4},
      {"measurement": "Diarrhea, drug-related, CTC Grade 1–4: patients", "setting": "[2]; S2 150 mg/day N=5, all cycles", "result": 3},
      {"measurement": "Hypokalemia, drug-related, CTC Grade 1–4: patients", "setting": "[2]; S2 150 mg/day N=5, all cycles", "result": 1},
      {"measurement": "Hypokalemia, drug-related, CTC Grade 3–4: patients", "setting": "[2]; S2 150 mg/day N=5, all cycles", "result": 1},
      {"measurement": "Increased ALT, drug-related, CTC Grade 1–4: patients", "setting": "[2]; S2 150 mg/day N=5, all cycles", "result": 1},
      {"measurement": "Increased ALT, drug-related, CTC Grade 3–4: patients", "setting": "[2]; S2 150 mg/day N=5, all cycles", "result": 1},
      {"measurement": "Increased Lipase, drug-related, CTC Grade 1–4: patients", "setting": "[2]; S2 150 mg/day N=5, all cycles", "result": 1},
      {"measurement": "Increased Lipase, drug-related, CTC Grade 3–4: patients", "setting": "[2]; S2 150 mg/day N=5, all cycles", "result": 1},
      {"measurement": "Nausea, drug-related, CTC Grade 1–4: patients", "setting": "[2]; S2 150 mg/day N=5, all cycles", "result": 3},
      {"measurement": "Neutropenia, drug-related, CTC Grade 1–4: patients", "setting": "[2]; S2 150 mg/day N=5, all cycles", "result": 1},
      {"measurement": "Tremor, drug-related, CTC Grade 1–4: patients", "setting": "[2]; S2 150 mg/day N=5, all cycles", "result": 3},
      {"measurement": "Vomiting, drug-related, CTC Grade 1–4: patients", "setting": "[2]; S2 150 mg/day N=5, all cycles", "result": 2},
      {"measurement": "Vomiting, drug-related, CTC Grade 3–4: patients", "setting": "[2]; S2 150 mg/day N=5, all cycles", "result": 1},
      {"measurement": "Anemia, drug-related, CTC Grade 1–4: patients", "setting": "[2]; S2 200 mg/day N=4, all cycles", "result": 2},
      {"measurement": "Any drug-related adverse event, CTC Grade 1–4: patients", "setting": "[2]; S2 200 mg/day N=4, all cycles", "result": 4},
      {"measurement": "Any drug-related adverse event, CTC Grade 3–4: patients", "setting": "[2]; S2 200 mg/day N=4, all cycles", "result": 2},
      {"measurement": "Dehydration, drug-related, CTC Grade 1–4: patients", "setting": "[2]; S2 200 mg/day N=4, all cycles", "result": 1},
      {"measurement": "Diarrhea, drug-related, CTC Grade 1–4: patients", "setting": "[2]; S2 200 mg/day N=4, all cycles", "result": 3},
      {"measurement": "Diarrhea, drug-related, CTC Grade 3–4: patients", "setting": "[2]; S2 200 mg/day N=4, all cycles", "result": 1},
      {"measurement": "Dizziness, drug-related, CTC Grade 1–4: patients", "setting": "[2]; S2 200 mg/day N=4, all cycles", "result": 2},
      {"measurement": "Fatigue, drug-related, CTC Grade 1–4: patients", "setting": "[2]; S2 200 mg/day N=4, all cycles", "result": 3},
      {"measurement": "Nausea, drug-related, CTC Grade 1–4: patients", "setting": "[2]; S2 200 mg/day N=4, all cycles", "result": 1}
    ]}
  ]
}
